Test results: publication PMC2726290, “Decoding of Methylated Histone H3 Tail by the Pygo-BCL9 Wnt Signaling Complex” (Molecular Cell, 2008)
Read-outs that look alike come from different tables or passages of the source. Values belong to the compound of their own block, whether it stands above or below them.

Legend:
[1] = target: T1, hPHD-HD1 complex (hPygo1 PHD with hBCL9 HD1) (Homo sapiens, UniProt O00512+Q9Y3Y4); assay: ITC, histone tail peptides with human PHD-HD1 complex; type: binding; details: ITC at 25 °C
T1 construct: hPygo1 PHD (amino acids 333–402); GST (N, cleaved yes); made in house; host or cells: E. coli BL21-CodonPlus(DE3)-RIL
T1 sequence (Q9Y3Y4 333-402): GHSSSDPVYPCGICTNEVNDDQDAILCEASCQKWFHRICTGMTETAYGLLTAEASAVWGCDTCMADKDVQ
T1 sequence (O00512 177-205 partner limits assumed): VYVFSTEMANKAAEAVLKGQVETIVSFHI
Procedure: (§1) ITC was carried out using a VP-ITC Microcal calorimeter (Microcal, Northhampton, MA, USA). Peptides were lyophilized against freshly prepared 20mM ammonium bicarbonate solution and resuspended in the ITC dialysis buffer (25mM Tris pH 8.0, 100mM NaCl and 2mM β-mercaptoethanol). Experiments were performed at 25 °C. During titration, 4-12µl aliquots of 0.5-1.0mM peptide solution was injected into a solution of 50µM protein at time intervals of 5 min. ITC data were corrected for the heat of dilution and analyzed using Origin (version 5.0) provided by the manufacturer. […]

[2] = target: T2, dPHD-HD1 complex (Drosophila Pygo PHD with Lgs HD1) (Drosophila melanogaster, UniProt Q961D9+Q9V9W8); assay: ITC, histone tail peptides with Drosophila PHD-HD1 complex; type: binding
T2 construct: Drosophila Pygo PHD (amino acids 747–808); GST (N, cleaved yes); made in house; host or cells: E. coli BL21-CodonPlus(DE3)-RIL
T2 sequence (Q9V9W8 747-808): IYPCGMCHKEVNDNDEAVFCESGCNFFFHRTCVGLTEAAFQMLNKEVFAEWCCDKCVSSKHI
T2 sequence (Q961D9 316-350 partner limits assumed): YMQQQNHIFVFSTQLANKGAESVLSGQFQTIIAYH
Procedure: as §1

[3] = target: T3, PHD finger from hPygo1 (hPHD) (Homo sapiens, UniProt Q9Y3Y4); assay: ITC, histone tail peptides with free hPHD; type: binding; details: 15-mer peptides, ITC at 25 °C, pH 8.0
T3 construct: hPygo1 PHD (amino acids 333–402); GST (N, cleaved yes); made in house; host or cells: E. coli BL21-CodonPlus(DE3)-RIL
T3 sequence (Q9Y3Y4 333-402): T1 sequence (Q9Y3Y4 333-402)
Procedure: Free PHD fingers were purified similarly to the PHD-HD1 complexes, and purity was assessed by SDS-PAGE prior to use for ITC.
as §1

[4] = tested on: PHD from hPygo1 (GST-hPHD); assay: In vitro pull-down, MBP-tagged HD1 deletions with GST-hPHD; type: binding, human; details: systematic N- and C-terminal deletions of HD1, MBP-tagged
Procedure: Figure S2. Deletion Analysis of hBCL9 HD1 and Binding to hPygo1 PHD
(A) Systematic N- and C-terminal deletions of HD1 from hBCL9 (underlined), individually and combined (bottom); sequences between, and including, red (marking deletion end-points) were tested for their in vitro binding to PHD from hPygo1 (B), as summarized on […]
(B) In vitro pull-down assays, to test binding between MBP-tagged HD1 deletions and GST-hPHD; positive controls, Lgs HD1, hBCL9 AKV-TER; negative controls, GST, MBP-ACTN2; IP, input (5%); G, GST; PHD, GST-hPHD. […]

Compound: 9-mer H3K4me2 A1>G: 9-mer whose A1 was substituted with a glycine (A1 > G) (GRTKQTARK; dimethyl-lysine at K4)
binding (in words) ([1]; human PHD-HD1 complex, pH 8.0): reduced to almost background levels

Compound: C[C@H](N)C(=O)N[C@@H](CCCNC(=N)N)C(=O)N[C@H](C(=O)N[C@@H](CCCC[N+](C)(C)C)C(=O)N[C@@H](CCC(N)=O)C(=O)N[C@H](C(=O)N[C@@H](C)C(=O)N[C@@H](CCCNC(=N)N)C(=O)N[C@@H](CCCCN)C(=O)N[C@@H](CO)C(=O)N[C@H](C(=O)NCC(=O)NCC(=O)N[C@@H](CCCCN)C(=O)N[C@@H](C)C(=O)O)[C@@H](C)O)[C@@H](C)O)[C@@H](C)O [15-mer H3K4me3]
Kd [2]: 23 µM

Compound: V177-I205: minimal PHD-interacting fragment of HD1 from hBCL9 (VYVFSTEMANKAAEAVLKGQVETIVSFHI; HD1; UniProt O00512 177-205, looked up, fragment)
PHD binding of HD1 fragment (in words) [4]: minimal PHD-interacting fragment

The next lines start with the values.

binding (in words) ([1]; human PHD-HD1 complex, pH 8.0): No binding was detectable
Compound: 9-mer H3K4me2 ΔA1: truncated H3K4me2 peptide spanning R2-K9 (without A1, ΔA1) (RTKQTARK; dimethyl-lysine at K4)

Kd ([1]; Figure 3B, hPHD-HD1, pH 8.0, 100 mM NaCl, 25 mM Tris-HCl, 10 μM ZnCl2, 2 mM β-mercaptoethanol, 50µM protein, 0.5-1.0mM peptide, one-site model, ± fitting error, read-out: Binding constant (Kd)): 11.4 ± 1.1 µM
Compound: C[C@H](N)C(=O)N[C@@H](CCCNC(=N)N)C(=O)N[C@H](C(=O)N[C@@H](CCCCN(C)C)C(=O)N[C@@H](CCC(N)=O)C(=O)N[C@H](C(=O)N[C@@H](C)C(=O)N[C@@H](CCCNC(=N)N)C(=O)N[C@@H](CCCCN)C(=O)O)[C@@H](C)O)[C@@H](C)O [9-mer H3K4me2]

Kd ([2]; Figure 3B, dPHD-HD1, ITC at 25 °C, pH 8.0, 100 mM NaCl, 25 mM Tris-HCl, 10 μM ZnCl2, 2 mM β-mercaptoethanol, 50µM protein, 0.5-1.0mM peptide, one-site model, ± fitting error, read-out: Binding constant (Kd)): 21.5 ± 0.3 µM | Kd [3]: 9 µM | Kd ([1]; human PHD-HD1 complex, pH 8.0, read-out: Kd): 2.9 µM
Compound: CNCCCC[C@H](NC(=O)[C@@H](NC(=O)[C@H](CCCNC(=N)N)NC(=O)[C@H](C)N)[C@@H](C)O)C(=O)N[C@@H](CCC(N)=O)C(=O)N[C@H](C(=O)N[C@@H](C)C(=O)N[C@@H](CCCNC(=N)N)C(=O)N[C@@H](CCCCN)C(=O)N[C@@H](CO)C(=O)N[C@H](C(=O)NCC(=O)NCC(=O)N[C@@H](CCCCN)C(=O)N[C@@H](C)C(=O)O)[C@@H](C)O)[C@@H](C)O [15-mer H3K4me1]

Kd ([2]; Figure 3A panel, dPHD-HD1, 15-mer peptide, ITC at 25 °C, 100 mM NaCl, 25 mM Tris-HCl pH 8.0, 10 μM ZnCl2, 2 mM β-mercaptoethanol, 50µM protein, 0.5-1.0mM peptide, one-site model, ± fitting error, read-out: Kd): 12.6 ± 0.5 µM | Kd [3]: 2.4 µM | Kd ([1]; Figure 3A panel, hPHD-HD1, 15-mer peptides, 100 mM NaCl, 25 mM Tris-HCl pH 8.0, 10 μM ZnCl2, 2 mM β-mercaptoethanol, 50µM protein, 0.5-1.0mM peptide, one-site model, ± fitting error, read-out: Kd): 0.93 ± 0.01 µM
Compound: C[C@H](N)C(=O)N[C@@H](CCCNC(=N)N)C(=O)N[C@H](C(=O)N[C@@H](CCCCN(C)C)C(=O)N[C@@H](CCC(N)=O)C(=O)N[C@H](C(=O)N[C@@H](C)C(=O)N[C@@H](CCCNC(=N)N)C(=O)N[C@@H](CCCCN)C(=O)N[C@@H](CO)C(=O)N[C@H](C(=O)NCC(=O)NCC(=O)N[C@@H](CCCCN)C(=O)N[C@@H](C)C(=O)O)[C@@H](C)O)[C@@H](C)O)[C@@H](C)O [15-mer H3K4me2]
